Results from paper PMC4077706, “Lifting the Mask: Identification of New Small Molecule Inhibitors of Uropathogenic Escherichia coli Group 2 Capsule Biogenesis” (PLoS ONE, 2014).
Like-named read-outs stand apart in the source and are kept apart here.

Experiments:
[1] = biological target: T1, Adrenergic β1 (Homo sapiens, UniProt P08588); format: binding; conditions: 10 µM
T1 construct: host or cells: CHO-K1 cells

[2] = biological target: T2, Platelet Activating Factor (PAF) (Homo sapiens, UniProt P25105); format: binding; conditions: 10 µM
T2 construct: Human platelets; host or cells: human platelets
T2 sequence (P25105 whole entry): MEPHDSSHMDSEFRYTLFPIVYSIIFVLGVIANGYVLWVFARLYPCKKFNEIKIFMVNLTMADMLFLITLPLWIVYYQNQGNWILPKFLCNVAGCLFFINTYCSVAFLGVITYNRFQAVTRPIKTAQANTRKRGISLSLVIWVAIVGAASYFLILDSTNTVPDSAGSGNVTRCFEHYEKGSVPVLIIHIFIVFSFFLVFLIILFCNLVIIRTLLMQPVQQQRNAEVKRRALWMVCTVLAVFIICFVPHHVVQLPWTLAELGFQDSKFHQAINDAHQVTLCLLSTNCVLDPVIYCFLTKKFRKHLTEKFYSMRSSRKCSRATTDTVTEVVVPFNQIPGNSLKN

[3] = biological target: Muscarinic M3 (Homo sapiens, UniProt P20309); format: binding; design: host or cells: CHO-K1 cells; conditions: 10 µM
[4] = system: Bladder carcinoma 5637 cells; format: cell-based
Experimental: Testing was performed essentially as previously described, [44]. Concentration-response testing was performed over a range 0.58–300 µM in a […] plate format. Bladder carcinoma 5637 cells (ATCC HTB-9) were added to the compounds, and 72 hrs later cell viability was measured using CellTiter Glo (Promega). […] Hyamine was used as a positive cytotoxic control. All wells contained 0.5% DMSO.

[5] = biological target: T3, Melatonin MT1 (Homo sapiens, UniProt P48039); format: binding; conditions: 10 µM
T3 construct: host or cells: CHO-K1 cells
T3 sequence (P48039 whole entry): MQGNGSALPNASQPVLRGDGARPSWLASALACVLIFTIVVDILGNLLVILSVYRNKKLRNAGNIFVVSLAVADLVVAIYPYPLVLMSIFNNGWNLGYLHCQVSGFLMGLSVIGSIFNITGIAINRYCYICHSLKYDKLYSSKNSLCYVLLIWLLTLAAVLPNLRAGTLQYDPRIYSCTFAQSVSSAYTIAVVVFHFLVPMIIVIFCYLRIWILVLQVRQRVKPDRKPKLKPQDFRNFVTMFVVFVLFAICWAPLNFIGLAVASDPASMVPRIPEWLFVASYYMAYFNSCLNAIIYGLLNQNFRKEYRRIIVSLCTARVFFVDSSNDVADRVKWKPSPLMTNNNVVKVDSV

[6] = biological target: T4, Serotonin (5-Hydroxytryptamine) 5-HT1A (Homo sapiens, UniProt P08908); test: Radioligand binding 271110; conditions: 10 µM
T4 construct: host or cells: CHO-K1
T4 sequence (P08908 whole entry): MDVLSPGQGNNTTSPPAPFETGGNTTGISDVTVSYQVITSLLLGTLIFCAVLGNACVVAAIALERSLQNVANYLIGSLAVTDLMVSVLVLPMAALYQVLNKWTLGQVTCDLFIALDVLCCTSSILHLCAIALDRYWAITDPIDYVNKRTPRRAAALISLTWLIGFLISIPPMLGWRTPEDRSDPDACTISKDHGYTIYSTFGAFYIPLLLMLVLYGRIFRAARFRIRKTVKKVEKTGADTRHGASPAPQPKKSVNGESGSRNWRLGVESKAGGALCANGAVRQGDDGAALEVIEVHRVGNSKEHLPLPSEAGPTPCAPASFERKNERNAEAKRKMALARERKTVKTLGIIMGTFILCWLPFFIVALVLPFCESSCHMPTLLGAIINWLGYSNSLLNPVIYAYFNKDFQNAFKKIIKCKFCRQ

[7] = biological target: Serotonin (5-Hydroxytryptamine) 5-HT2B (Homo sapiens, UniProt P41595); test: Radioligand binding 271700; design: host or cells: CHO-K1; conditions: 10 µM
[8] = biological target: T5, Transporter, Serotonin (5-Hydroxytryptamine) (SERT) (Homo sapiens, UniProt P31645); format: binding; conditions: 10 µM
T5 construct: host or cells: HEK-293

[9] = biological target: T6, Adrenergic α2A (Homo sapiens, UniProt P08913); test: Radioligand binding 203620; conditions: 10 µM
T6 construct: host or cells: insect Sf9 cells
Experimental: Vehicle: 1% DMSO Non-Specific Ligand: 10.0 µM Phentolamine
Incubation Buffer: 50 mM Tris-HCl, pH 7.4, 0. 5 mM Quantitation Method: Radioligand Binding
Bmax: 0.18 pmole/mg Protein *
Incubation Time/Temp: 60 minutes @ 25°C Specific Binding: 80% *
Bmax: 0.17 pmole/mg Protein *
Source: Human recombinant insect Sf9 cells Ligand: 1.0 nM [3H]
Vehicle: 1% DMSO Non-Specific Ligand: 10.0 µM WB-4101
Incubation Time/Temp: 60 minutes @ 25°C Specific Binding: 95% *
Incubation Buffer: 50 mM Tris-HCl, pH 7.4, 12.5 mM Quantitation Method: Radioligand Binding
Bmax: 4.60 pmole/mg Protein *
Source: Human recombinant CHO-K1 cells Ligand: 0.030 nM [125I] Cyanopindolol
Incubation Time/Temp: 2 hours @ 25°C Specific Binding: 95% *
Incubation Buffer: 50 mM Tris-HCl, pH 7.4, 1.4 mM Quantitation Method: Radioligand Binding
Ascorbic Acid, 0.001% BSA, 5 mM
EDTA, 1.5 mM CaCl2, 120 mM NaCl
Bmax: 0.072 pmole/mg Protein *

[10] = biological target: T7, Potassium Channel [KATP] (Cricetus cricetus, UniProt Q09427); format: binding, hamster; conditions: 10 µM
T7 construct: Hamster pancreatic HIT-T15 beta; host or cells: HIT-T15 hamster pancreatic beta cells
T7 sequence (Q09427 whole entry): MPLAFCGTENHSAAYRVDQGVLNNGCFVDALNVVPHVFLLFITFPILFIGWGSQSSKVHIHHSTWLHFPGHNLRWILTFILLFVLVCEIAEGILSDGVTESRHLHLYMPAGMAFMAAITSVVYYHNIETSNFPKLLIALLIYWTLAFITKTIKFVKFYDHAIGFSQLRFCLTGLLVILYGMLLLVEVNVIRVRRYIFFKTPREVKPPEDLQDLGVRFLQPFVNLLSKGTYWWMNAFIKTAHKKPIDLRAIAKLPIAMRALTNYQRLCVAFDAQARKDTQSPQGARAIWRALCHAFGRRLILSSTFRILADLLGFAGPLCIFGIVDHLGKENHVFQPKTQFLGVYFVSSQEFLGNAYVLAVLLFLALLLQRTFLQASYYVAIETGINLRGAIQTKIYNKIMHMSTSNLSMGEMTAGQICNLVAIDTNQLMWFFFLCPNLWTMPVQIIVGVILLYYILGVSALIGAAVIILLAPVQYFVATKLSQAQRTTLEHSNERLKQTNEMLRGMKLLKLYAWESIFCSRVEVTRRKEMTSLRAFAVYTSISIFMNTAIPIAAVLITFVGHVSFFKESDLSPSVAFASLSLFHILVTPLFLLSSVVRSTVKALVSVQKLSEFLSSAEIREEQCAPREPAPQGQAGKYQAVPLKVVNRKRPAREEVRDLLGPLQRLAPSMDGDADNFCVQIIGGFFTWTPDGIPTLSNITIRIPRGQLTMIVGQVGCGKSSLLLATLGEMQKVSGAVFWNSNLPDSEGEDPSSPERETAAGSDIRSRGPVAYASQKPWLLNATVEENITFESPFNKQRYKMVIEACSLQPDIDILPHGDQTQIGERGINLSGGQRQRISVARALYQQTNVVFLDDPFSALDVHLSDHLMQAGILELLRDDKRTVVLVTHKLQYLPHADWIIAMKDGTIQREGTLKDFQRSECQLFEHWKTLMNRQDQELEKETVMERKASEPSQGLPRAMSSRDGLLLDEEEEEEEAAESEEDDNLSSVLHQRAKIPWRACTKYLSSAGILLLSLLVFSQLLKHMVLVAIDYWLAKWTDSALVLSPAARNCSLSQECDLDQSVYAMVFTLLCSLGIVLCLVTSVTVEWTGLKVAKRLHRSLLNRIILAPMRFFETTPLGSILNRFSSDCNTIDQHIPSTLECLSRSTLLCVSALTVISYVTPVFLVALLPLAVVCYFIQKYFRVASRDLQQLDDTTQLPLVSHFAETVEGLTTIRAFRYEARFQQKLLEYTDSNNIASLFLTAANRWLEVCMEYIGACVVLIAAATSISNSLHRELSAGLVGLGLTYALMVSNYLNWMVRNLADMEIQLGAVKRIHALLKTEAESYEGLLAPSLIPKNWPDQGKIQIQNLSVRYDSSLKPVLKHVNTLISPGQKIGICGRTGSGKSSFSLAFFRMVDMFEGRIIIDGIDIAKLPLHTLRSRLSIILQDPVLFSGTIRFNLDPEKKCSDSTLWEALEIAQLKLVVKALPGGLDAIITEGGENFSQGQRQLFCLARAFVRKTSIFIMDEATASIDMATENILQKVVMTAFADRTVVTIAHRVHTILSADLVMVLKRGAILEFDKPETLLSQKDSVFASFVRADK

[11] = biological target: Glutamate, NMDA, Glycine (Rattus norvegicus, UniProt P35439); format: binding; design: Wistar Rat cerebral cortex; tissue Eurofins Panlabs 232910; host or cells: Wistar rat cerebral cortex; conditions: 10 µM
[12] = biological target: T8, Interleukin IL-1 (Mus musculus, UniProt P13504); test: Radioligand binding 243520; conditions: 10 µM
T8 construct: Mouse 3T3-SWISS cells; host or cells: Swiss 3T3 mouse fibroblasts

[13] = system: K1 capsule biogenesis in E. coli UTI89; format: cell-based, Escherichia coli; conditions: average of at least 3 replicates ± SEM, read-out: IC50 K1 phage
Experimental: The primary assay consisted of detection of the presence and absence of the K1 capsule on the E. coli urinary tract isolate UTI89 under growth conditions with compounds from a large chemical library. The assay was conducted as previously described with the following modifications. The primary assay was conducted in 1,536-well plate format. UTI89 ΔkpsM, an isogenic K1 capsule export mutant, was included as an unencapsulated control. Tetracycline, 50 µM, was used as a negative growth control. A 1∶75 dilution of overnight cultures were made in LB broth containing 0.5% DMSO, and 3 µL of this culture was added to each plate well, and plates were incubated, inverted, at 37°C for 2 hr. […]. The plates were centrifuged briefly, and then were incubated, inverted, at 37°C for an additional 2 hr. […] Resorufin fluorescence was measured using excitation of 560 nm and emission of 590 nm, as per the manufacturer's recommendations.
Concentration-response testing (concentration range = 0.58–300 µM) was used to confirm and characterize the primary screen hits, which was necessary to determine the number of compounds advanced to secondary screens. […] The strain UTI89 ΔkpsM, a K1 capsule export mutant, was evaluated with the wild-type strain as a phage-insensitive control (mimicking 100% capsule inhibition).

[14] = system: Rolipram; test: Radioligand binding 270000; design: species or system rat; conditions: 10 µM
[15] = biological target: Opiate δ1 (OP1, DOP) (Homo sapiens, UniProt P41143); format: binding; design: host or cells: HEK-293 cells; conditions: 10 µM
[16] = biological target: Calcium Channel L-Type, Dihydropyridine (Rattus norvegicus, UniProt P22002); format: binding; conditions: 10 µM
Chain of Calcium Channel L-Type, Dihydropyridine (P22002 whole entry): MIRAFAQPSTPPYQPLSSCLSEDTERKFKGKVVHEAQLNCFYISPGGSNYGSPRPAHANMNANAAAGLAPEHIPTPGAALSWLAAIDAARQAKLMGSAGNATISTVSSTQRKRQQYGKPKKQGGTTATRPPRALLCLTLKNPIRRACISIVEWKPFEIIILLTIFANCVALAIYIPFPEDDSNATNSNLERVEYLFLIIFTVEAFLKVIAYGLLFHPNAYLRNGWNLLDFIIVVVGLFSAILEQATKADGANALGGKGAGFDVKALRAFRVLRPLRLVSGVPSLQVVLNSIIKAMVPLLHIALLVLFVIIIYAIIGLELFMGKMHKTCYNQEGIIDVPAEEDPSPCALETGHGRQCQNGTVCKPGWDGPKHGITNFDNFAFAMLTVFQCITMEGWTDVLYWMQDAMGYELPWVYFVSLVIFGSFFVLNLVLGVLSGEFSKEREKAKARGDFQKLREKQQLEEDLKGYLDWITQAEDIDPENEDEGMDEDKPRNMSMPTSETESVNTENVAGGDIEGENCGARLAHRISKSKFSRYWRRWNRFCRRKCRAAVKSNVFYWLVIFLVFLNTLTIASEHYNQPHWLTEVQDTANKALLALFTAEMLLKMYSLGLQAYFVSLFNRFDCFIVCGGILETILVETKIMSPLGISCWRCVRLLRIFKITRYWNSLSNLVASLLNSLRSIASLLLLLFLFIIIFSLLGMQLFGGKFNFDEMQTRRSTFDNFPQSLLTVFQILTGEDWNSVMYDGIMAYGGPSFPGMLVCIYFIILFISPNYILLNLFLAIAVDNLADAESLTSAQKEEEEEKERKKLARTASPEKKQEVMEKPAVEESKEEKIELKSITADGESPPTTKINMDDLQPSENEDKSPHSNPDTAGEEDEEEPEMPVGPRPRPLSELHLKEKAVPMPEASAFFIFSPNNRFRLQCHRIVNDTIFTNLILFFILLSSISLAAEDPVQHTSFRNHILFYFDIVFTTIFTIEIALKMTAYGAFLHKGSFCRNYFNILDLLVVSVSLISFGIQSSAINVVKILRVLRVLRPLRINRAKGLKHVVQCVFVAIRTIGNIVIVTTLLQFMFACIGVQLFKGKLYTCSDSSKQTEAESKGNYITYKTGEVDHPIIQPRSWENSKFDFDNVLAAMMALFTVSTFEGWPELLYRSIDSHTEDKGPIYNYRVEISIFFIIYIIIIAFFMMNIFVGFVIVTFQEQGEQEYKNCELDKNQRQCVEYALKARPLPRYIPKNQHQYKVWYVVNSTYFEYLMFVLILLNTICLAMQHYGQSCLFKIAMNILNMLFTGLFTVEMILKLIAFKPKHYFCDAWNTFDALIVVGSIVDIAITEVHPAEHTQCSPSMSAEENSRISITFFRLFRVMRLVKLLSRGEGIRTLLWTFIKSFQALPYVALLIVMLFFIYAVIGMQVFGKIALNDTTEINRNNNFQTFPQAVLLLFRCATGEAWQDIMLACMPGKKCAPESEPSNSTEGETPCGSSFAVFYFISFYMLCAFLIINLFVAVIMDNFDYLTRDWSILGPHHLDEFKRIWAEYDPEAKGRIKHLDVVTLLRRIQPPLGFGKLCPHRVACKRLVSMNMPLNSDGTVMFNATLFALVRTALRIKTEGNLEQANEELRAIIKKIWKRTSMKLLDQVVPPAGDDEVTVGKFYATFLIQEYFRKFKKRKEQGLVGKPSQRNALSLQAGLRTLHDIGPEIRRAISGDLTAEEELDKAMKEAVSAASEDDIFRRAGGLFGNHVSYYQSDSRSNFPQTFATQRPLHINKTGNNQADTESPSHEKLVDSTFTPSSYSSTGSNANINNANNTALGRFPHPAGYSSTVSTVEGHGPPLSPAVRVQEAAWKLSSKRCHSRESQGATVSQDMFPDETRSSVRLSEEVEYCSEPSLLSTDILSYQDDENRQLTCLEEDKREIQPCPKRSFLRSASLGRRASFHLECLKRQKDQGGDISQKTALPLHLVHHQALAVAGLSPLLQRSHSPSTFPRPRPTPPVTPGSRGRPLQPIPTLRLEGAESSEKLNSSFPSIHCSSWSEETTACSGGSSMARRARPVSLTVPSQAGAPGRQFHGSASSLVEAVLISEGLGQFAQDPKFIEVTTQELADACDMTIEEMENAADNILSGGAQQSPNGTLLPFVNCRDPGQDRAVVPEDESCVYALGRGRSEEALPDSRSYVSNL

[17] = biological target: T9, Dopamine D1 (Homo sapiens, UniProt P21728); format: binding; conditions: 10 µM
T9 construct: host or cells: CHO cells

CCOc1ccc(-c2cc(NC(=O)c3c(F)cccc3F)c(C(=O)O)s2)cc1 [DU011]
% Inh. [1]: 3% | % Inh. [2]: -1% | % Inh. [3]: -3% | Selectivity (CC50/IC50) [4]: 13.3 | CC50 ([4]; 5637 cells, 72 hrs, ± SEM, read-out: Cytotoxicity (CC50)): 51.6 ± 13.6 µM | % Inh. [5]: 7% | % Inh. [6]: 11% | % Inh. [7]: 19% | % Inh. [8]: 5% | % Inh. [9]: -14% | PAMPA Permeability Pe (Donor pH 5.0, acceptor pH 7.4): 14 ×10⁻⁶ cm/s | PAMPA Permeability Pe (Donor pH 6.2, acceptor pH 7.4): 209 ×10⁻⁶ cm/s | PAMPA Permeability Pe (Donor pH 7.4, acceptor pH 7.4): 52 ×10⁻⁶ cm/s | % Inh. [10]: 12% | % Inh. [11]: 6% | % Inh. [12]: 4% | IC50 [13]: 4.5 ± 2.5 µM | % Inh. [14]: 3% | % Inh. [15]: 10% | % Inh. [16]: 18% | % Inh. [17]: 4%
